# Measurements published in patent US7417025B2, “Use of poly-α2,8-sialic acid mimetic peptides to modulate NCAM functions” (Centre National de la Recherche Scientifique, priority 2002, dated 2008).
# Entries after “also recorded” stand apart in the source; their conditions may differ.
# What was measured:
# mAb 735 = experiment: Competitive ELISA of biotinylated peptide-BSA conjugates on anti-PSA mAb; assay type: binding; conditions: for Binding of peptide to mAb 735 in competitive ELISA (percentage of binding): biotinylated peptide-BSA conjugate
# Source text: • mAb 735 and 30H12 • MaxiSorp™ plates (NUNC) for coating the antibody: ELISA plates • microtiter plates (NUNC) for peptide dilution: dilution plates • Biotinylated peptide-BSA conjugates prepared as above described • Extravidin alkaline phosphatase-avidin conjugate (SIGMA E2636) • p-nitrophenyl-phosphatase alkaline substrate (SIGMA 104-105) 2.1.2) Buffers • PBS pH 7.4 • Blocking solution: 0.5% BSA in PBS • TBS • TBST: TBS containing 0.05% Tween 20 • Extravidin alkaline phosphatase-avidin conjugate solution: 1/5000 in TBST • Alkaline phosphatase substrate solution; 1 tablet in 5 ml 50 mM NaHCO3, 1 mM MgCl2 solution, […]) Method
# Maxisorp™ plate wells were coated with 100 μl mAb solution (25 μg/ml) for 2 h at room temperature. The control wells of the ELISA plates were only coated with the blocking solution. In parallel, the peptide-BSA conjugate dilution plates were blocked with 200 μl blocking solution for 2 h. The antibody coated wells and the control wells were blocked with 200 μl blocking solution for 1 h. In parallel the peptide-BSA conjugate dilution plates were washed 6 times with TBST and 120 μl TBST was added to the wells. An appropriate volume of peptide-BSA conjugate solution was added to the first well and the volume adjusted to 140 μl with TBST. The peptide-BSA conjugate in well one was diluted in the ratio 1/7 by taking 20 μl out of the first well and transferring into the second also to achieve the total volume of 140 μl. This was repeated for the remaining wells. The peptide-BSA conjugate dilutions for the control wells were done the same way. The blocked ELISA plates were washed 6 times with TBST and the peptide-BSA conjugate dilutions or 100 μl of the mixed competitor solution was added to the wells. After incubation for 1 h, the wells were washed 10 times with TBST and 100 μl of the alkaline phosphatase substrate solution was added to the wells. The plates were read out after 10 to 60 min using a microplate reader at 405 nm.
# The specificity of peptide p21 (SEQ ID NO: 1) was investigated in a competition ELISA using biotinylated p21-BSA conjugate and a randomized variant of p21 (p22) conjugate as a control. The results presented in Tables X and XI are expressed as percentage of binding by comparison with peptide p21 at the highest concentration (9.45 10^-5 M) which corresponds to 100% binding.
# [1] = test system: Mouse dorsal root ganglion explants (E13.5); experiment: Dorsal root ganglion explant culture: neurite outgrowth and fasciculation; assay type: cell-based
# Method: E13.5 DRGs were dissected out from mice embryos in HBSS medium and seeded on glass coverslips coated with polylysine or with peptides linked to BSA. Explants were cultured in the presence or the absence of the peptides under soluble form (40 μM) in two ml of neurobasal medium (DMEM/Ham's F12, 3:1 (V/V), GIBCO, buffered with 20 mM Hepes), supplemented as described in Faivre-Sarrailh et al., J. Cell. Sci., 1999, 18, 3015-3027 and Chazal et al., J.Neurosci., 2000, 20, 1446-1457.
# Fixed DRGs (Dorsal Root ganglia) explants and sections were incubated at 4° C. respectively 2 hr with an anti-neurofilament (SMI-31, dilution 1:800, STERNBERGER MONOCLONALS) and overnight with an anti-PSA antibody (dilution 1:200, Rougon et al, J. Cell. Biol., 1986, 103, 2429-2437). Revelation was performed by 1 hr incubation with the corresponding fluorescent-labeled secondary antibody (Goat anti-mouse IgM or IgG conjugated with texas red, IMMUNOTECH)
# After 48 h in culture, explants were examining directly (SVZ) or after overnight fixation with a 4% paraformaldehyde solution in PBS and immunostaining (DRGs). Observation was done using 2, 5×, 5×, 10× and 32× objectives (Axiovert 35M, ZEISS). Images were collected with a video camera (Cool View, PHOTONIC SCIENCE) and analysed using image-processing software (Visiolab1000, BIOCOM). Mean migration distance (calculated on five different experiments, including at least five explants per condition) or mean length of the longest neurite (calculated on two different experiments, including at least eight explants per condition), was the distance in micrometers between the explant edge and the border of the cell migration front. Four measurements were performed for each explant. The significance of the differences between the control and the different experimental conditions was calculated by Student's t test.
# Mouse dorsal root ganglion explants (E13.5) were cultured in the presence of p65 and p66 cyclic mimetic peptides, either in soluble form or coated on the microplates as BSA conjugates. Cells cultured in the absence of peptides or in the presence of reverse peptides (coated or in soluble form) were used as controls.
# 30H12 antibody = experiment: ELISA with peptide-BSA conjugate on 30H12-coated plates; assay type: binding; conditions: no competitor, FIG. 12A
# Source text: FIG. 12A: ELISA using 30H12 anti-PSA monoclonal antibody-coated plates.
# The specificity of the cyclic peptides was investigated in an ELISA assay using plates coated with 30H12 antibody, following the protocol as described above for the competitive ELISA, with the exception that the competitor was omitted.
# [2] = test system: subventricular zone explants (neuronal precursors); experiment: Subventricular zone (SVZ) explant culture: cell migration in vitro; assay type: cell-based, mouse; conditions: 0.4 μM peptide
# [3] = peptide-BSA conjugate, in words
# [4] = peptide in coated form (BSA conjugate)
# [5] = peptide in soluble form (40 μM), versus controls
sequence,measurement,setting,value
DSPLVPFIDFHP [p21],Binding of peptide to mAb 735 in competitive ELISA (percentage of binding),"mAb 735; peptide 1.62 10^−9 M, + chondroitin sulfate C",50 ± 1%
same,Binding of peptide to mAb 735 in competitive ELISA (percentage of binding),"mAb 735; peptide 1.62 10^−9 M, + colominic acid 1 mM",0 ± 1%
same,Binding of peptide to mAb 735 in competitive ELISA (percentage of binding),"mAb 735; peptide 1.62 10^−9 M, no competitor",56 ± 4%
same,Binding of peptide to mAb 735 in competitive ELISA (percentage of binding),"mAb 735; peptide 1.67 10^−5 M, + chondroitin sulfate C",99 ± 4%
same,Binding of peptide to mAb 735 in competitive ELISA (percentage of binding),"mAb 735; peptide 1.67 10^−5 M, + colominic acid 1 mM",34 ± 3%
same,Binding of peptide to mAb 735 in competitive ELISA (percentage of binding),"mAb 735; peptide 1.67 10^−5 M, no competitor",93 ± 10%
same,Binding of peptide to mAb 735 in competitive ELISA (percentage of binding),"mAb 735; peptide 2.86 10^−9 M, + chondroitin sulfate C",11 ± 2%
same,Binding of peptide to mAb 735 in competitive ELISA (percentage of binding),"mAb 735; peptide 2.86 10^−9 M, + colominic acid 1 mM",0 ± 0%
same,Binding of peptide to mAb 735 in competitive ELISA (percentage of binding),"mAb 735; peptide 2.86 10^−9 M, no competitor",13 ± 1%
same,Binding of peptide to mAb 735 in competitive ELISA (percentage of binding),"mAb 735; peptide 2.94 10^−6 M, + chondroitin sulfate C",99 ± 8%
same,Binding of peptide to mAb 735 in competitive ELISA (percentage of binding),"mAb 735; peptide 2.94 10^−6 M, + colominic acid 1 mM",23 ± 1%
same,Binding of peptide to mAb 735 in competitive ELISA (percentage of binding),"mAb 735; peptide 2.94 10^−6 M, no competitor",95 ± 1%
same,Binding of peptide to mAb 735 in competitive ELISA (percentage of binding),"mAb 735; peptide 5.04 10^−10 M, + chondroitin sulfate C",3 ± 0%
same,Binding of peptide to mAb 735 in competitive ELISA (percentage of binding),"mAb 735; peptide 5.04 10^−10 M, + colominic acid 1 mM",0 ± 0%
same,Binding of peptide to mAb 735 in competitive ELISA (percentage of binding),"mAb 735; peptide 5.04 10^−10 M, no competitor",2 ± 0%
same,Binding of peptide to mAb 735 in competitive ELISA (percentage of binding),"mAb 735; peptide 5.20 10^−7 M, + chondroitin sulfate C",94 ± 7%
same,Binding of peptide to mAb 735 in competitive ELISA (percentage of binding),"mAb 735; peptide 5.20 10^−7 M, + colominic acid 1 mM",15 ± 3%
same,Binding of peptide to mAb 735 in competitive ELISA (percentage of binding),"mAb 735; peptide 5.20 10^−7 M, no competitor",91 ± 2%
same,Binding of peptide to mAb 735 in competitive ELISA (percentage of binding),"mAb 735; peptide 8.89 10^−11 M, + chondroitin sulfate C",2 ± 0%
same,Binding of peptide to mAb 735 in competitive ELISA (percentage of binding),"mAb 735; peptide 8.89 10^−11 M, + colominic acid 1 mM",0 ± 0%
same,Binding of peptide to mAb 735 in competitive ELISA (percentage of binding),"mAb 735; peptide 8.89 10^−11 M, no competitor",0 ± 0%
same,Binding of peptide to mAb 735 in competitive ELISA (percentage of binding),"mAb 735; peptide 9.27 10^−8 M, + chondroitin sulfate C",92 ± 2%
same,Binding of peptide to mAb 735 in competitive ELISA (percentage of binding),"mAb 735; peptide 9.27 10^−8 M, + colominic acid 1 mM",5 ± 2%
same,Binding of peptide to mAb 735 in competitive ELISA (percentage of binding),"mAb 735; peptide 9.27 10^−8 M, no competitor",93 ± 9%
same,Binding of peptide to mAb 735 in competitive ELISA (percentage of binding),"mAb 735; peptide 9.45 10^−5 M, + chondroitin sulfate C",96 ± 8%
same,Binding of peptide to mAb 735 in competitive ELISA (percentage of binding),"mAb 735; peptide 9.45 10^−5 M, + colominic acid 1 mM",43 ± 3%
same,Binding of peptide to mAb 735 in competitive ELISA (percentage of binding),"mAb 735; peptide 9.45 10^−5 M, no competitor",100 ± 11%
same,Binding of peptide to mAb 735,mAb 735; [3],binds specifically to mAb 735 in a concentration-dependent manner
same,Effect of chondroitin sulfate C on peptide binding to mAb 735,mAb 735; [3],no influence
same,Effect of colominic acid on peptide binding to mAb 735,mAb 735; [3],clear inhibition
CSSVTAWTTGCG [p65],Fasciculation,[1]; [4],opposite effect on fasciculation
same,Neurite outgrowth,[1]; [4],no effect on neurite outgrowth; also recorded: no significant increase
same,Axonal growth,[1]; [5],significant increase in axonal growth
same,Fasciculation of axon bundles,[1]; [5],clear defasciculation of axon bundles
same,Increase of neurite outgrowth compared to the controls,"[1]; peptide in soluble form, mean length of the longest neurite",34%
same,Binding of cyclic peptides to 30H12 antibody in ELISA,30H12 antibody,highest binding
same,Increase in the rate of migration of the neuronal precursors compared with the control without peptide,[2],+40%
